Source: EP2949220A1, “Nutraceutic supplement for bees families and process for its administration” (SC Teso Spec SRL, priority 2014, dated 2015)

Assays:
CYP9Q = CYP9Q induction in bees fed bee candy (quantitative RT-PCR); assay type: in vivo, honey bees; settings: 3 days, control = 100%, 4.3 µg/g maltol, 0.41 µg/g p-coumaric acid, 0.45 µg/g caffeic acid where present (mixture row prints µg/l)
Description: (§1) Optimization of the ratio of hydroxycinnamic acids, p-coumaric and caffeic, and maltol, was obtained by using experiments designed according to response surface technique, using the Software Design-Expert® v. 9.0 (Stat-Ease, Minneapolis, MN, USA). Two bioassays were used, wherein the effect of different combinations of maltol and hydroxycinnamic acids, p-coumaric and caffeic, were determined, on fructophilic lactobacteria growth and on oxidative stress and on the induction of CYP9Q, enzyme from cytochrome P450 monooxigenase class, with key role in defense systems of bees (Mao et al., 2013, PNAS, 110: 8842-8846). […] After three days bees midguts were taken by dissection, frozen in liquid nitrogen and stored at -80 ° C, to extract total RNA for quantitative RT-PCR analysis of CYP9Q3 expression and for the determination of lipid peroxides (as malondialdehide) as markers of oxidative stress. RNA was extracted from frozen abdomens by TRIzol method (Invitrogen, Thermo Fisher Scientific, Waltham, MA, USA), treated with DNAse (Ambion® protocol, Thermo Fisher Scientific) and used for the quantitative analysis of the expression CYP9Q by RT-PCR, as described by Mao et al., 2011 (PNAS, 108, 12657-12662). Lipid peroxides were determined as malondialdehid ? , with tiobarbituric acid (Rael et al., 2004, J. Biochem. Mol. Biol, 3, 749-752).

[1] = system: Lactobacillus kunkeei DSM 12361; assay: Growth of fructophilic lactobacteria on FYP broth with glucose-fructose syrup; assay type: cell-based; settings: FYP medium with glucose-fructose syrup; 21.5 mg/l maltol, 2.05 mg/l p-coumaric acid, 2.25 mg/l caffeic acid where present
Description: Optimization of the ratio of hydroxycinnamic acids, p-coumaric and caffeic, and maltol, was obtained by using experiments designed according to response surface technique, using the Software Design-Expert® v. 9.0 (Stat-Ease, Minneapolis, MN, USA). Two bioassays were used, wherein the effect of different combinations of maltol and hydroxycinnamic acids, p-coumaric and caffeic, were determined, on fructophilic lactobacteria growth and on oxidative stress and on the induction of CYP9Q, enzyme from cytochrome P450 monooxigenase class, with key role in defense systems of bees (Mao et al., 2013, PNAS, 110: 8842-8846). […] The ratio 4.1 parts p-coumaric acid, 4.5 parts caffeic acid and 43 parts maltol, determined as being optimal in terms L. kunkeei development enhancement, was re-tested in laboratory conditions, using 400 g/l glucose-fructose syrup (Isosugar 031™, Tate and Lyle, London, United Kingdom, 74.8% dry matter, 50.2% of which is fructose), instead of 300 g/l of fructose on FYP broth. […]

[2] = system: lipid peroxides (as malondialdehide); assay: Oxidative stress in midguts of bees fed bee candy (lipid peroxides as MDA, thiobarbituric acid); assay type: in vivo, honey bees; settings: 3 days, control = 100%, 4.3 µg/g maltol, 0.41 µg/g p-coumaric acid, 0.45 µg/g caffeic acid where present (mixture row prints µg/l)
Description: as §1

Inducing CYP9Q (%) (CYP9Q): 102.9%
Structure (SMILES): Cc1occc(=O)c1O [maltol, 3-Hydroxy-2-methyl-4H-piran-4-one]
Culture development (% control) [1]: 76.8 % control
Lactic acid production (% control) [1]: 67,9 % control
Oxidative stress MDA (%) [2]: 123,7%
